Test system: food intake in food deprived rats
Assay: Effect of intranasal administration of capsaicin on food intake in food deprived rats
Type: in vivo, Male Sprague-Dawley rats
Conditions: intra-nasal liquid solution, 0.02-2 mg/kg of body weight, food introduced one hour after administration, consumption determined after 4, 12 and 24 hours, mush diet
Source text: Male Sprague-Dawley rats, 150-175 g at the start of the experiments (Charles River Laboratories, Wilmington, Mass.) were housed individually in suspended wire mesh cages. Rats had ad libitum access to tap water and food (Rodent Laboratory Chow No. 5001-pellet form, Purina) on non-testing days. A mush diet, used for experiments on food-deprived animals, and composed of equal parts by weight of ground rodent chow (Purina, #5001-meal form) and a 4% nutrient agar solution (Teklad Diets) was presented to the animals in glass jars. This agar-based chow diet allows for a more accurate measurement of food intake, and has been shown previously to be sufficient for maintaining normal rat growth.
Capsaicin was prepared as a liquid solution and administered intra-nasally, The drug dosage ranged from 0.02-2 mg/kg of body weight. Control animals were administered placebo formulation without capsaicin. One hour after administration, pre-weighed food jars were introduced into the cage and a sheet of clean white paper placed under each cage to catch any spillage. The amount of food consumed after 4, 12 and 24 hours was determined to the nearest 0.01 g.

COc1cc(CNC(=O)CCCC/C=C/C(C)C)ccc1O [Capsaicin]
amount of food consumed versus placebo: significantly less food
